The values below come from PubChem BioAssay AID212 (DTP/NCI, 2004).

“And” between values parts separate entries of the source, which are not always exact repeats. Equal entries are not always repeated. Results filed as inconclusive are left out.

In the experiment the test system is BDF1 mice, colon carcinoma 38 sc, T/C %. The experiment is described as follows: NCI In Vivo Anticancer Drug Screen. Data for tumor model Colon Carcinoma 38 (subcutaneous) in B6D2F1 (BDF1) mice. Conditions: endpoint: median tumor weight (est.), higher = larger tumour. An outline of the steps: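 T/C readout: treated group (T) measurement over vehicle control group (C) measurement. Endpoint is survival or tumor size in mice bearing a transplanted tumor.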

The mark [1] stands for this setting: dose: 50.0 mg/kg/injection, schedule: Q07DX002 (ip), vehicle: saline.
Where [2] appears, read: dose: 100.0 mg/kg/injection, schedule: Q07DX002 (ip), vehicle: saline.
Where [3] appears, read: dose: 200.0 mg/kg/injection, schedule: Q07DX002 (ip), vehicle: saline.
Setting [4] is: dose: 25.0 mg/kg/injection, schedule: Q07DX002 (ip), vehicle: saline with Tween-80.
Where [5] appears, read: dose: 200.0 mg/kg/injection, schedule: Q07DX002 (ip), vehicle: saline with Tween-80.
[6] abbreviates: dose: 12.5 mg/kg/injection, schedule: Q07DX002 (ip), vehicle: saline with Tween-80.
[7] abbreviates: dose: 12.5 mg/kg/injection, schedule: Q07DX002 (ip), vehicle: saline.
Setting [8] is: dose: 50.0 mg/kg/injection, schedule: Q07DX002 (ip), vehicle: saline with Tween-80.
[9] abbreviates: dose: 100.0 mg/kg/injection, schedule: Q07DX002 (ip), vehicle: saline with Tween-80.
The mark [10] stands for this setting: dose: 400.0 mg/kg/injection, schedule: Q07DX002 (ip), vehicle: saline with Tween-80.

In the case of `CN(C)[C@@H]1C(=O)C(C(N)=O)=C(O)[C@@]2(O)C(=O)C3=C(O)c4c(O)ccc(Cl)c4[C@@](C)(O)[C@H]3C[C@@H]12`, the T/C is, setting by setting: (dose: 25.0 mg/kg/injection, schedule: Q07DX002 (ip), vehicle: saline) 182 % of control; (dose: 25.0 mg/kg/injection, schedule: Q07DX002 (ip), vehicle: suspension in saline) 82 % of control; under setting [1], 188 % of control; (dose: 50.0 mg/kg/injection, schedule: Q07DX002 (ip), vehicle: suspension in saline) 119 % of control; under setting [2], 117 % of control; (dose: 100.0 mg/kg/injection, schedule: Q07DX002 (ip), vehicle: suspension in saline) 80 % of control. Also, the T/C under setting [3] was 93 % of control; the T/C (dose: 200.0 mg/kg/injection, schedule: Q07DX002 (ip), vehicle: suspension in saline) is 93 % of control; the T/C (dose: 400.0 mg/kg/injection, schedule: Q07DX002 (ip), vehicle: suspension in saline) was 65 % of control.
`Oc1ccc(SCc2ccc(NCc3ccccc3)cc2)cc1`: the T/C (dose: 12.5 mg/kg/injection, schedule: Q07DX002 (ip), vehicle: DMSO) is 75 % of control; the T/C (dose: 25.0 mg/kg/injection, schedule: Q07DX002 (ip), vehicle: DMSO) was 82 % of control; the T/C (dose: 50.0 mg/kg/injection, schedule: Q07DX002 (ip), vehicle: DMSO) was 85 % of control; the T/C (dose: 100.0 mg/kg/injection, schedule: Q07DX002 (ip), vehicle: DMSO) is 109 % of control; the T/C (dose: 200.0 mg/kg/injection, schedule: Q07DX002 (ip), vehicle: DMSO) is 82 % of control.
For the compound `COc1cccc2c1C(=O)c1c(O)c3c(c(O)c1C2=O)C[C@@](O)(C(O)CO)C[C@@H]3OC1CC(N(Cc2ccccc2)Cc2ccccc2)C(O)C(C)O1` (some centres undefined), the T/C reads like this: (dose: 12.5 mg/kg/injection, schedule: Q07DX002 (ip), vehicle: water) 75 % of control; (dose: 25.0 mg/kg/injection, schedule: Q07DX002 (ip), vehicle: water) 72 % of control; (dose: 50.0 mg/kg/injection, schedule: Q07DX002 (ip), vehicle: water) 36 % of control.
On to `NS(=O)(=O)OCCCCCCCOS(N)(=O)=O`, for which the T/C is 124 % of control under setting [4]; 9 % of control and 16 % of control under setting [5].
With `C=C(C)/C([O-])=N/[N+](C)(C)CC(O)CCCCCCCCCCCC` (centres undefined), the T/C was 105 % of control (dose: 25.0 mg/kg/injection, schedule: Q01DX001 (ip), vehicle: saline); 100 % of control (dose: 50.0 mg/kg/injection, schedule: Q01DX001 (ip), vehicle: saline); 109 % of control (dose: 100.0 mg/kg/injection, schedule: Q01DX001 (ip), vehicle: saline); 108 % of control (dose: 200.0 mg/kg/injection, schedule: Q01DX001 (ip), vehicle: saline); 156 % of control (dose: 400.0 mg/kg/injection, schedule: Q01DX001 (ip), vehicle: saline).
In the case of `Cc1c(-c2ccc(-c3ccccc3F)cc2)nc2ccc(F)cc2c1C(=O)O`, the T/C is, setting by setting: (dose: 5.0 mg/kg/injection, schedule: Q01DX008 (ip), vehicle: water) 24 % of control; (dose: 10.0 mg/kg/injection, schedule: Q01DX008 (ip), vehicle: water) 5 % of control; (dose: 20.0 mg/kg/injection, schedule: Q01DX008 (ip), vehicle: water) 16 % of control.
Take `C=CS(=O)(=O)c1ccccc1`: the T/C (dose: 6.25 mg/kg/injection, schedule: Q07DX002 (ip), vehicle: saline with Tween-80) is 91 % of control; the T/C under setting [6] is 66 % of control; the T/C under setting [7] is 97 % of control; the T/C under setting [4] is 174 % of control; the T/C under setting [8] was 150 % of control; the T/C under setting [1] is 100 % of control. For the same compound, the T/C under setting [9] is 109 % of control.
With `NC1CCCCC1N.O=S(=O)([O-])CCCNC1CCCCC1.O=S(=O)([O-])CCCNC1CCCCC1.[Pt+4]`, the T/C (dose: 0.78 mg/kg/injection, schedule: Q07DX002 (ip), vehicle: saline) was 50 % of control; the T/C (dose: 1.56 mg/kg/injection, schedule: Q07DX002 (ip), vehicle: saline) was 38 % of control; the T/C (dose: 3.12 mg/kg/injection, schedule: Q07DX002 (ip), vehicle: saline) is 62 % of control; the T/C (dose: 6.25 mg/kg/injection, schedule: Q07DX002 (ip), vehicle: saline) is 25 % of control and 47 % of control; the T/C under setting [7] is 14 % of control.
Take `CCCCCC1c2cc(O)ccc2OC1N1CCOCC1` (centres undefined): the T/C (dose: 12.0 mg/kg/injection, schedule: Q07DX002 (ip), vehicle: saline with Tween-80) was 107 % of control; the T/C under setting [4] was 161 % of control; the T/C under setting [9] is 169 % of control; the T/C under setting [5] is 55 % of control; the T/C under setting [10] was 170 % of control; the T/C (dose: 450.0 mg/kg/injection, schedule: Q07DX002 (ip), vehicle: saline with Tween-80) was 120 % of control. The T/C (dose: 900.0 mg/kg/injection, schedule: Q07DX002 (ip), vehicle: saline with Tween-80) is 154 % of control.
For the compound `O=C[C@@H](CO)O[C@H](C=O)c1c[nH]c(=O)[nH]c1=O`, the T/C by setting is: under setting [7], 121 % of control; under setting [1], 83 % of control; under setting [2], 121 % of control; under setting [3], 57 % of control.
In the case of `CCCCn1cnc2c(=S)nc[nH]c21`, the T/C is 87 % of control and 96 % of control under setting [8]; 17 % of control and 21 % of control under setting [10].
For the compound `CC(=O)Nc1ccc(O)c(O)c1`, the T/C under setting [6] was 112 % of control; the T/C under setting [4] was 86 % of control; the T/C under setting [8] is 100 % of control and 102 % of control; the T/C under setting [9] is 66 % of control and 83 % of control; the T/C under setting [5] was 90 % of control and 95 % of control; the T/C under setting [10] is 74 % of control and 75 % of control and 86 % of control. Besides, the T/C (dose: 800.0 mg/kg/injection, schedule: Q07DX002 (ip), vehicle: saline with Tween-80) was 72 % of control.
